Assay results reported in patent publication US6884810B2, “Benzimidazole derivatives” (Zeria Pharmaceutical Co., Ltd., priority 2001, dated 2005).

Assays:
[1] = test system: gastric acid secreted under stimulation with histamine; experiment: Gastric acid secretion inhibition action, histamine-stimulated, acute Fistula method; format: in vivo, Sprague-Dawley (SD) rats; conditions: SD rats, administered in the duodenum, histamine 8 mg/kg/h, total acid discharge at 3, 4 and 5 hours, Probit method
Experimental: (Gastric Acid Secretion Inhibition Action)
(1) Test Animals Employed were Sprague-Dawley (SD) Rats (7 Weeks Old, Male) Purchased from Charles River Japan, Inc. Before the Test, the Rats Were Fed for 5 Days or More.
Each test drug was suspended in, or dissolved in, 0.5% sodium carboxymethylcellulose solution, whereby a suspension or solution was prepared so as to attain 2.5 mL/kg.
(2) Measurement of Gastric Acid Secretion
The amount of gastric acid secreted under stimulation with histamine was measured on the rats fasted for 18 hours by use of the acute Fistula method as described by Hiramatsu et al. (Dig. Dis. Sci.,39, 689-697(1994)). Briefly, each rat was etherized lightly, and then a winged tubular needle filled with 3.8% citric acid solution was indwelled in the tail vein of the rat. The abdomen of the rat was opened, and the pyloric part of the stomach was ligated. Subsequently, a small hole was made in the duodenum, and the abdomen of the rat was closed with a feeding tube filled with saline indwelled. The inside of the stomach was washed with saline, a polyethylene-made Fistula tube (inner diameter: 4 mm) was set in the anterior stomach, and the cut portion of the anterior stomach was ligated and secured. The stomach and the duodenum were returned to the abdominal cavity, with the Fistula tube and the feeding tube exposed outside. The rat was placed in a Ballman cage II. Histamine was continuously administered through the winged injection needle which had been indwelled in the tail vein in advance (8 mg/kg/h, 1.38 mL/h). 15 Minutes thereafter, gastric juice of the rat was collected. Subsequently, collection of gastric juice was performed every one hour. Each time, the amount of the collected gastric juice was recorded, followed by titration with NaOH (0.1 mol/L) up to the end point pH 7.0. From the volume consumed for titration, acidity was calculated. The acid discharge amount was calculated as a product of the amount of the gastric juice and the acidity. Before starting the test, the rats were grouped so that the intra-group total amount of the gastric juice samples initially collected was the same between groups. Thereafter, each test drug was administered (2.5 mL/kg) in the duodenum through a feeding tube which had been attached to the duodenum in advance. To each rat of a control group, 0.5% Na-CMC solution was administered.
(3) Analysis of the Results
The data as obtained above are shown by way of mean±standard error. Total amount of acid discharge was obtained through summation of the amounts of acid discharge at three points in time; i.e., 3, 4 and 5 hours after initial collection of gastric juice. Percent inhibition of each group was computed from the total acid discharge amount of the control group and that of each group. On the basis of the percent inhibition calculated for each group, 50% effective dose (ED50) was computed by use of the Probit method.

CYP2C19 = molecular target: T1, CYP2C19 (Homo sapiens, UniProt P33261); experiment: Human CYP2C19 activity inhibition test (S-(+)-mephenytoin to 4'-hydroxymephenytoin); format: in vitro ADME; conditions: test compound 10 μM, human CYP2C19 yeast expression system microsome, 4'-hydroxymephenytoin generated vs control; for CYP2C19 residual activity (%): 10 µM
T1 construct: purchased Sumitomo Chemical Co., Ltd; host or cells: yeast (microsomes)
T1 sequence (P33261 whole entry): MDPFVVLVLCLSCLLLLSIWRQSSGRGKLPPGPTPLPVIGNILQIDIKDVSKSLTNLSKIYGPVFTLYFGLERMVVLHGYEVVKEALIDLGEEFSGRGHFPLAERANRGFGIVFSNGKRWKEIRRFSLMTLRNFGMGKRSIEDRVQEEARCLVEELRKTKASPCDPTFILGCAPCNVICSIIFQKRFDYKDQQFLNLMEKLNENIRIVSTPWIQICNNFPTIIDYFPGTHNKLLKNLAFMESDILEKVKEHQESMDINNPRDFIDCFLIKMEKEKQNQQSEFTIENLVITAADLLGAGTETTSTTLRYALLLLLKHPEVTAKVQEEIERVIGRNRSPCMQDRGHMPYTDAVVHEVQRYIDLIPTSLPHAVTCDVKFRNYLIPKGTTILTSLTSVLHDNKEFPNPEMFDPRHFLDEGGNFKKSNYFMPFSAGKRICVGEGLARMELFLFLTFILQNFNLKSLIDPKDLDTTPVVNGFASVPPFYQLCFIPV
Experimental: (Human CYP2C19 Activity Inhibition Test)
CYP2C19 specifically participates in the metabolism reaction from S-(+)-mephenytoin to 4′-hydroxymephenytoin. Therefore, by use of an expression system CYP2C19, the production amount (concentration) of 4′-hydroxymephenytoin, serving as an index for CYP2C19 activity, was determined, whereby the inhibitory action of respective test substances was investigated.
(a) Metabolizing Activity Test
A solution of S-(+)-mephenytoin in methanol (125 μmol/L, 50 μL) and a solution of a test substance in methanol (25 μmol/L, 0, 10, 100, or 200 μL) were placed in a 10-mL glass test tube. The solvent was removed under a nitrogen gas at 40° C. A 75 μL mixture of 0.5M phosphate buffer (pH 7.4)-0.5 mM EDTA (20:10), 140 μL purified water, and 10 μL human CYP2C19 yeast expression system microsome (purchased from Sumitomo Chemical Co., Ltd.) were added.
Incubation was performed for 10 minutes at 37° C. Subsequently, aqueous 12% perchloric acid solution (50 μL) was added, to thereby stop the reaction.
After the reaction was stopped, an internal standard substance (I.S.) methyl p-hydroxybenzoate (100 μg/ mL, 50 μL), and diethyl ether (2 mL) were added. The mixture was shaken for 10 minutes, followed by centrifugation at 3,000 rpm for 10 minutes. The organic layer was separated, and the solvent was removed under a nitrogen gas at 40° C. The residue was dissolved in a 200 μL mobile phase, and the mixture was subjected to analysis by high performance liquid chromatography (HPLC).
In order to generate a calibration curve, the general procedure of the above process was repeated by use of 4′-hydroxymephenytoin solution instead of the S-(+)-mephenytoin solution. Quantitation was performed on the basis of the peak area ratio of 4′-hydroxymephenytoin to I.S. The amount of 4′-hydroxymephenytoin generated in the control sample was compared with that generated in the present of a test compound, and the results of comparison were used as an activity index.
HPLC was performed under the conditions described below (HPLC conditions A or HPLC conditions B).

H+/K+-ATPase = molecular target: T2, H+/K+-ATPase (Sus scrofa, UniProt P19156); experiment: Proton pump inhibitory action: activity of inhibiting H+/K+-ATPase (at pH 1); format: biochemical; conditions: pig gastric mucosa enzyme sample; test compounds pretreated in hydrochloric acid solution pH 1 (50% DMSO) for 15 minutes; read-out: Proton pump inhibitory action [IC50 (μmol/L)]
T2 construct: The mucous membrane layer was homogenized in Tris-HCl buffer; from tissue; host or cells: pig stomach body, mucous membrane layer, membrane fraction from a sucrose interface
T2 sequence (P19156 2-1034 limits assumed): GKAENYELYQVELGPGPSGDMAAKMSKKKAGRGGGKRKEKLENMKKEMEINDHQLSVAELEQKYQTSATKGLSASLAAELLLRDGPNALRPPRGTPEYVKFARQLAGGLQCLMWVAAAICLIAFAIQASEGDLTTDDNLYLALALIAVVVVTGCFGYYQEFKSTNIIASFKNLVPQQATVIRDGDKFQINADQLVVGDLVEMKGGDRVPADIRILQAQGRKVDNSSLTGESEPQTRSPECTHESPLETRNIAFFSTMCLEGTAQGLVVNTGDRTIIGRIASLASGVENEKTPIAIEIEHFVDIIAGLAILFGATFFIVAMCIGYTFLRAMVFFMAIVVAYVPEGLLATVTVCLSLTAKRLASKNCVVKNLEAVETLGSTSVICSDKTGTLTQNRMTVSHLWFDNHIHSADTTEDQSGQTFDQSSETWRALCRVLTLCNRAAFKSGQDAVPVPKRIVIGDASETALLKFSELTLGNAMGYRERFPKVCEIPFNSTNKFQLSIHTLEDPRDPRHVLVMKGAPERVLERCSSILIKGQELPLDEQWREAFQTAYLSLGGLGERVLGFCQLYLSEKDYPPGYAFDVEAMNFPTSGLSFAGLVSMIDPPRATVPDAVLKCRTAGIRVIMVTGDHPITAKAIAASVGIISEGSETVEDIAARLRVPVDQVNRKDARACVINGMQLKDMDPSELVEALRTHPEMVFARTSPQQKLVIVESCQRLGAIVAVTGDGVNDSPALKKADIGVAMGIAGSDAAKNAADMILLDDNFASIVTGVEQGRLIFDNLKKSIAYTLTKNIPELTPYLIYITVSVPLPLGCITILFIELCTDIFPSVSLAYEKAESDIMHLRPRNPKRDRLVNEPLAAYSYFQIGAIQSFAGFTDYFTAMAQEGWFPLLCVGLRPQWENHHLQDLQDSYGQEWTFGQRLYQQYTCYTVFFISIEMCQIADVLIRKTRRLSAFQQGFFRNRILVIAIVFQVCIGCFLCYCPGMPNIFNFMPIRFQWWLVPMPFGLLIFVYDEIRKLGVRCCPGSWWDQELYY
T2 sequence (P18434 whole entry partner): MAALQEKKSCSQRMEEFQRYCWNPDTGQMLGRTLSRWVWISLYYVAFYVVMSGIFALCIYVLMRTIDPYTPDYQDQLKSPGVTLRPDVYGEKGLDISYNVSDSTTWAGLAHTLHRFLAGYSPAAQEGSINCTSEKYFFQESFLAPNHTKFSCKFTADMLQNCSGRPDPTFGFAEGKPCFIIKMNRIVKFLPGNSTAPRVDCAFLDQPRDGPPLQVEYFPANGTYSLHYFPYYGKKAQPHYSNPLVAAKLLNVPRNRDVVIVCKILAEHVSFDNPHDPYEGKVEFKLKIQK
Source text: (Proton Pump Inhibitory Action)
(1) Preparation of Enzyme Sample (H^+/K^+-ATPase)
The stomach body removed from a pig, which had been stored in a frozen state, was separated into a muscle layer and a mucous membrane layer. The mucous membrane layer was homogenized in Tris-HCl buffer (20 mmol/L, pH 7.4) having a volume 5 times that of the layer and containing sucrose (0.25 mol/L) and EGTA (1 mmol/L) (hereinafter the mixture is referred to as Tris-HCl buffer) in a mixer. The homogenate was subjected to centrifugation (9,000×g, 30 minutes). The supernatant was softly placed on 8 mL Tris-HCl buffer (20 mmol/L, pH 7.4) containing 30% sucrose and 1 mmol/L EGTA. The mixture was subjected to ultracentrifugation at 100,000×g for 60 minutes. The interface fraction obtained through centrifugation was subjected to centrifugation (113,000×g, 60 minutes) twice. Pellet was suspended in Tris-HCl buffer, and the suspension was homogenized at low speed. The resultant homogenate served as an enzyme sample of interest and was stored at −80° C. The protein content of the sample was quantitated through use of a BCA protein assay reagent in accordance with a method described by Smith et al. (Anal. Biochem., 150, 76-85 (1985)). All these steps were performed under cooling with an ice bath.
(2) Activity of inhibiting H^+/K^+-ATPase (at pH 1)
Activity of inhibiting H^+/K^+-ATPase was measured in accordance with a method described in Biochem. Biophys. Res. Commun., 40, 880-886 (1970). Specifically, ATP was employed as a substrate, and inorganic phosphate, which is a resultant degradation product, was quantitated. In consideration of the solubility of test compounds, the test compounds were preliminarily treated with a hydrochloric acid solution (containing 50% DMSO, 1×10^−1 mol/L, pH 1). Each of the test compounds having different concentrations was added to the hydrochloric acid solution to thereby yield a 1,000—fold dilution, and thereafter, the diluted compound was allowed to stand for 15 minutes at room temperature. After these preliminary remedies, a 10 μL solution that had undergone the above preliminary remedies were added to 840 μL Tris-acetate buffer (40 mmol/L, pH 7.5, containing 2 mmol/L MgCl2, may be referred to as TE buffer) containing or not containing 20 mmol/L KCl. Subsequently, a 100 μL enzyme solution (5 μg protein) diluted with the TE buffer was added. Incubation was performed for 30 minutes at 37° C. Thereafter, a 50 μL ATP solution (40 mmol/L) which was dissolved in TE buffer not containing KCl was added to initiate enzyme reaction (total volume: 1 mL, ATP final concentration: 2 mmol/L). Incubation was performed for 30 minutes at 37° C. Subsequently, ice-cold 12% trichloroacetic acid (2 mL) was added, to thereby stop the enzyme reaction. A molybdenum reagent (1 mL, 3.75% ammonium molybdate/1.5 mol/L sulfuric acid) and butyl acetate (5 mL) were added, followed by mixing under vigorous shaking for 5 minutes. The absorption of the butyl acetate layer was measured at 310 nm. A standard curve was determined on the basis of absorption obtained through the similar procedure by use of KH2PO4 at different concentrations dissolved in 8% TCA solution, and inorganic phosphate content was calculated. Samples to be measured were prepared in duplicate. The measurements were averaged, and residual activity was obtained from the difference between the inorganic phosphate content as determined in a sample containing KCl and that as determined in a sample not containing KCl. Percentage inhibition activity was calculated with respect to the activity obtained from a control sample (DMSO), which was considered 100%. As the inhibitory potency of each test compound, IC50 values were computed and shown. All the test compounds were dissolved in dimethyl sulfoxide immediately before use.

Structure (SMILES) | CYP2C19 residual activity (%) (CYP2C19) | IC50 (H+/K+-ATPase) [µmol/L] | activity at 10 min, 10 µM (CYP2C19; human, pH 7.4, probe S-(+)-mephenytoin (to 4'-hydroxymephenytoin), read-out: CYP2C19 residual activity (%)) [%] | ED50 ([1]; Rattus norvegicus) [mg/kg] | Gastric-acid secretion inhibition action [ED50 (mg/kg)] [1] [mg/kg]
COc1c(OCCCC(F)(F)F)ccnc1C[S+]([O-])c1nc2ccccc2[nH]1 (single isomer, unassigned; (+)) [Example 5(1), (+)-2-[3-methoxy-4-(4,4,4-trifluorobutoxy)pyridin-2-yl-methanesulfinyl]-1H-benzimidazole] | 78.6 | 3.32 | – | 0.9 | –
[O-][S+](Cc1cc(OCCCC(F)(F)F)ccn1)c1nc2ccccc2[nH]1 (single isomer, unassigned; (+)) [Example 11, (+)-2-[4-(4,4,4-trifluorobutoxy)pyridin-2-yl-methanesulfinyl]-1H-benzimidazole] | – | 3.77 | – | – | 0.50

Now from value to compound, other results behind:

CYP2C19 residual activity (%) (CYP2C19) | IC50 (H+/K+-ATPase) [µmol/L] | activity at 10 min, 10 µM (CYP2C19; human, pH 7.4, probe S-(+)-mephenytoin (to 4'-hydroxymephenytoin), read-out: CYP2C19 residual activity (%)) [%] | Structure (SMILES) | ED50 ([1]; Rattus norvegicus) [mg/kg] | Gastric-acid secretion inhibition action [ED50 (mg/kg)] [1] [mg/kg]
81.4 | 6.67 | – | [O-][S+](Cc1cc(OCCOCC(F)(F)F)ccn1)c1nc2ccccc2[nH]1 (single isomer, unassigned; (+)) [Example 14, (+)-2-{4-[2-(2,2,2-trifluoroethoxy)ethoxy]pyridin-2-yl-methanesulfinyl}-1H-benzimidazole] | – | 0.42
93.9 | 3.46 | – | COc1c(OCCOCC(F)(F)F)ccnc1C[S+]([O-])c1nc2ccccc2[nH]1 (single isomer, unassigned; (-)) [Example 4, (−)-2-{3-methoxy-4-[2-(2,2,2-trifluoroethoxy)ethoxy]pyridin-2-yl-methylsulfinyl}-1H-benzimidazole] | – | 2.6
– | 7.86 | 88.8 | [O-][S+](Cc1cc(OCCOCC(F)(F)F)ccn1)c1nc2ccccc2[nH]1 (stereo not shown) [Example 12, 2-{4-[2-(2,2,2-trifluoroethoxy)ethoxy]pyridin-2-yl-methanesulfinyl}-1H-benzimidazole] | – | –
